According to patent US20240199552A1, “AMIDE COMPOUND AND USE THEREOF” (Metisa Biotechnology Co., Ltd, priority 2021, published 2024):
Like-named read-outs stand apart in the source and are kept apart here.

Assays:
Format in all cases: in vivo
Mythimna separata = experiment: Insecticidal activity against Mythimna separata, Airbrush spray on maize leaf pieces; settings: 72 h, 0.05 mg/L, 3 days after the administration, 3rd-instar larvae, read-out: mortality rate against Mythimna separata
Description: (§1) After the compound to be determined was dissolved in a mixed solvent of acetone/methanol (1:1), it was diluted with water containing 0.1% (wt) Tween-80 to a desired concentration.
(§2) Mythimna separata, Diamondback moth, Chilo suppressalis, Spodoptera exigua, Myzus persicae, and Franklinella occidentalis were used as targets, and the activity was tested by an Airbrush spray method.
Determination method: maize leaves were cut into 2 cm leaf pieces, and the front and back of each leaf piece were sprayed under an Airbrush spray treatment pressure of 10 psi (approximate to 0.7 kg/cm^2) and with a spray volume of 0.5 mL. After drying in the shade, 10 3rd-instar larvae were inoculated for each treatment, and each treatment was repeated for 3 times. After the treatment, the leaf pieces were put into an observation chamber at 25° C. and with a relative humidity of 60% to 70%, and the number of living larvae was investigated 3 days after the administration of the compounds, and the mortality rates were calculated.

Diamondback moth = experiment: Insecticidal activity against Diamondback moth, Airbrush spray on cabbage leaf discs; settings: Plutella xylostella, foliar, 72 h; for mortality at 1.25 µg/mL: 1.25 mg/L, 3rd-instar larvae, read-out: mortality rate against Diamondback moth; for mortality at 10 µg/mL: 10 mg/L, read-out: Mortality rate (%, 3 days after the administration) 10 mg/L; for mortality at 0.156 µg/mL: read-out: Mortality rate (%, 3 days after the administration) 0.156 mg/L; for mortality at 0.313 µg/mL: read-out: Mortality rate (%, 3 days after the administration) 0.313 mg/L
Description: as §1, §2
Determination method: cabbage leaves were formed into leaf discs having a diameter of 2 cm using a puncher, and the front and back of each leaf disc were sprayed under an Airbrush spray treatment pressure of 10 psi (approximate to 0.7 kg/cm^2) and with a spray volume of 0.5 mL. After drying in the shade, 10 3rd-instar larvae were inoculated for each treatment, and each treatment was repeated for 3 times. After the treatment, the leaf discs were placed into an observation chamber at 25° C. and with a relative humidity of 60% to 70%, and the number of living larvae was investigated 3 days after the administration of the compounds, and the mortality rates were calculated.

Chilo suppressalis = experiment: Insecticidal activity against Chilo suppressalis, sprayed rice stems; settings: 72 h, 0.625 mg/L, 3 days after the administration, 3rd-instar larvae, read-out: mortality rate against Chilo suppressalis
Description: as §1, §2
Determination method: 1) Preparation of rice seedlings: rice was cultured in a plastic small cup with a diameter of 4.5 cm and a height of 4 cm in a constant temperature room (the temperature was 26-28° C., the relative humidity was about 60-80%, and the illumination was 16hL:8hD), when the rice grown to a 4-5 leaf stage, robust and uniformly grown rice seedlings were selected for pharmaceutical treatment, and 3 replicates were set for each treatment. 2) Preparation of test insects: 3rd-instar larvae of Chilo suppressalis were continuously reared indoors. 3) Rice stems were sprayed and insects were introduced. A spray method was used to treat whole rice seedlings with uniform spray, and each treatment was 15 mL. Blank controls were treated firstly, and then the above operation was repeated in an order of experimental concentrations from low to high. After the spray treatment of the rice seedlings, they were placed in the shade to air-dry drug liquid, about 5 cm of the stem from a basal part of the stem was cut and fed to the test insects. A glass culture dish with a diameter of 90 mm was prepared, filter paper was placed on the bottom of the dish, then water was added to moisturize. About 5 rice stems were placed in each dish, 10 larvae were introduced, and the culture dish was closed with non-woven fabric and placed in the constant-temperature room for culture. 3 days after the administration, the number of residual live insects was investigated.

Spodoptera exigua = experiment: Insecticidal activity against Spodoptera exigua, leaf disc dipping feeding method; settings: foliar, 72 h, 0.625 mg/L, 3 days after the administration, read-out: mortality rate against Spodoptera exigua
Description: After the compound to be determined was dissolved in a mixed solvent of acetone/methanol (1:1), it was diluted with water containing 0.1% (wt) Tween-80 to a desired concentration. […]
Determination method: the activity was tested by using a leaf disc dipping feeding method. Leaf discs were dipped in a drug solution for 10 s, and placed in a culture dish after being air-dried, there were 4 discs in each dish, and a filter paper was placed in the culture dish for moisture retention. 10 test insects of Spodoptera exigua were introduced to each dish, with 3 replicates.
They were placed in a light incubator for culture at a temperature of 25° C. and an illumination of 14hL:10hD. On the 1st, 2nd, and 3rd day after the administration, the number of dead Spodoptera exigua was investigated and the mortality rate was calculated.

Myzus persicae = experiment: Insecticidal activity against Myzus persicae, Airbrush spray on cabbage leaves; settings: 50 mg/L, after 48 h, read-out: mortality rate against Myzus persicae
Description: as §1, §2
Determination method: a culture dish with a diameter of 6 cm was taken, the bottom of the dish was covered by a layer of filter paper, and an appropriate amount of tap water was added to moisturize the paper. Cabbage leaves with an appropriate size (the diameter was about 3 cm) and 15-30 aphids grown were cut from cabbage plants used to culture Myzus persicae, winged aphids and aphids on the front of the leave were removed, and it was placed in the culture dish while the back of the leave was upward. The pressure of airbrush spray treatment was 10 psi (about 0.7 kg/cm^2), the liquid spray volume was 0.5 mL, and there were 3 replicates for each treatment. After the treatment, the leave was put into an observation room for culture at 25° C. and a relative humidity of 60-70%. After 48 h, the number of live insects was investigated and the mortality rate was calculated.

cat flea = experiment: Insecticidal experiment on cat flea, thin film in culture dish; settings: Ctenocephalides felis, 72 h, read-out: mortality rate, cat flea
Description: 4 mg of the compound to be determined was dissolved in 40 mL of acetone to obtain an acetone solution with a concentration of 100 mg/L. 400 μL of the drug solution was applied on the bottom and sides of a culture dish with an inner diameter of 5.3 cm, then after acetone was evaporated, a thin film of the compound of the present invention was made on the inner wall of the culture dish. The inner wall of the culture dish used was 40 cm^2, and the treatment dosage was 1 μg/cm^2. 10 adult cat fleas (mixed male and female) were put into the dish, and it was stored in a constant-temperature room at 25° C. after being covered. The number of dead insects after 72 h was checked and the mortality rate was calculated. The experiment was repeated for 3 times.

[1] = test system: Franklinella occidentalis; experiment: Insecticidal activity against Franklinella occidentalis nymphs, sprayed bean leaves
Description: as §1, §2
Determination method: fresh bean leaves cultivated in a greenhouse were selected, a hand-held Airbrush sprayer was used to spray uniformly, each treatment was 1 mL, and after being air-dried naturally, the leaves were placed in a finger-shaped tube. Neat and healthy Franklinella occidentalis nymphs were introduced, there were 15 nymphs for each treatment, 3 replicates were set for the experiment, and water treatment was set as a blank control. After the treatment, the leaves were put into an indoor culture room for culture at 24° C., a relative humidity of 60-70%, and natural light. After 72 h, the number of live insects was investigated and the mortality rate was calculated.

[2] = 3 days after the administration
[3] = 3 days after the administration, Diamondback moth
[4] = 0.156 mg/L, 3 days after the administration, Diamondback moth
[5] = 0.313 mg/L, 3 days after the administration, Diamondback moth

Row | SMILES | mortality at 0.05 µg/mL (Mythimna separata) [%] | mortality at 1.25 µg/mL (Diamondback moth; [2]) [%] | mortality at 10 µg/mL (Diamondback moth; [3]) [%] | mortality at 0.625 µg/mL (Chilo suppressalis) [%] | mortality at 0.625 µg/mL (Spodoptera exigua) [%] | mortality at 50 µg/mL (Myzus persicae) [%] | mortality at 1 µg/cm2 (cat flea) [%] | Mortality rate (%, 3 days after the administration) 10 mg/L [1] [%] | Mortality rate (%, 3 days after the administration) 100 mg/L [1] [%] | further results
1 | C=CCN(C(=O)c1ccccc1)c1cccc(C(=O)Nc2c(I)cc(C(F)(C(F)(F)F)C(F)(F)F)cc2C(F)(F)F)c1F [Compound 4] | > 90 | > 90 | 100 | > 90 | > 90 | > 90 | > 90 | – | – | –
2 | C=CCN(C(=O)c1ccc(C#N)cc1)c1cccc(C(=O)Nc2c(Br)cc(C(F)(C(F)(F)F)C(F)(F)F)cc2C(F)(F)F)c1F [Compound 11] | > 90 | > 90 | 100 | > 90 | > 90 | > 90 | > 90 | – | – | –
3 | C=CCN(C(=O)c1ccc(C#N)cc1)c1cccc(C(=O)Nc2c(I)cc(C(F)(C(F)(F)F)C(F)(F)F)cc2C(F)(F)F)c1F [Compound 12] | > 90 | > 90 | 100 | > 90 | > 90 | > 90 | > 90 | – | – | –
4 | C=CCN(C(=O)c1ccc(C#N)nc1)c1cccc(C(=O)Nc2c(Br)cc(C(F)(C(F)(F)F)C(F)(F)F)cc2C(F)(F)F)c1F [Compound 23] | > 90 | > 90 | 100 | > 90 | > 90 | > 90 | > 90 | – | – | –
5 | C=CCN(C(=O)c1ccc(C#N)nc1)c1cccc(C(=O)Nc2c(I)cc(C(F)(C(F)(F)F)C(F)(F)F)cc2C(F)(F)F)c1F [Compound 24] | > 90 | > 90 | 100 | > 90 | > 90 | > 90 | > 90 | – | – | –
6 | C=CCN(C(=O)c1ccc(C(F)(F)F)nc1)c1cccc(C(=O)Nc2c(Br)cc(C(F)(C(F)(F)F)C(F)(F)F)cc2C(F)(F)F)c1F [Compound 27] | > 90 | > 90 | 100 | > 90 | > 90 | > 90 | > 90 | – | – | –
7 | C=CCN(C(=O)c1ccc(C(F)(F)F)nc1)c1cccc(C(=O)Nc2c(I)cc(C(F)(C(F)(F)F)C(F)(F)F)cc2C(F)(F)F)c1F [Compound 28] | > 90 | > 90 | 100 | > 90 | > 90 | > 90 | > 90 | – | – | –
8 | C=CCN(C(=O)c1ccccc1)c1cccc(C(=O)Nc2c(C)cc(C(F)(C(F)(F)F)C(F)(F)F)cc2C)c1 [KC1, reference compound] | – | – | 0 | – | – | – | – | – | – | –
9 | C#CCN(C(=O)c1ccccc1)c1cccc(C(=O)Nc2c(C)cc(C(F)(C(F)(F)F)C(F)(F)F)cc2C)c1 [KC2, reference compound] | – | – | 0 | – | – | – | – | – | – | –
10 | CN(C(=O)c1ccccc1)c1cccc(C(=O)Nc2c(Br)cc(C(F)(C(F)(F)F)C(F)(F)F)cc2C(F)(F)F)c1F [KC3, broflanilide, reference compound] | – | – | – | – | – | – | – | 31.11 | 57.78 | mortality at 0.156 µg/mL (Diamondback moth): 50%; mortality at 0.313 µg/mL (Diamondback moth): 93.3%
11 | CN(C(=O)c1ccc(F)cc1)c1cccc(C(=O)Nc2c(Br)cc(C(F)(C(F)(F)F)C(F)(F)F)cc2C(F)(F)F)c1F [KC4, reference compound] | – | – | – | – | – | – | – | 40.00 | 62.22 | mortality at 0.156 µg/mL (Diamondback moth; [4]): 60%; mortality at 0.313 µg/mL (Diamondback moth; [5]): 100%
12 | CN(C(=O)c1ccc(F)cc1)c1cccc(C(=O)Nc2c(I)cc(C(F)(C(F)(F)F)C(F)(F)F)cc2C(F)(F)F)c1F [KC5, reference compound] | – | – | – | – | – | – | – | 28.89 | 51.11 | mortality at 0.156 µg/mL (Diamondback moth; [4]): 73.3%; mortality at 0.313 µg/mL (Diamondback moth; [5]): 100%
13 | O=C(Nc1cccc(C(=O)Nc2c(I)cc(C(F)(C(F)(F)F)C(F)(F)F)cc2C(F)(F)F)c1F)c1ccc(F)nc1 [KC6, reference compound] | – | – | – | – | – | – | – | 57.78 | 77.78 | mortality at 0.156 µg/mL (Diamondback moth): 46.7%; mortality at 0.313 µg/mL (Diamondback moth): 90%
14 | CN(C(=O)c1ccc(F)nc1)c1cccc(C(=O)Nc2c(Br)cc(C(F)(C(F)(F)F)C(F)(F)F)cc2C(F)(F)F)c1F [KC7, reference compound] | – | – | – | – | – | – | – | 53.33 | 80.00 | mortality at 0.156 µg/mL (Diamondback moth; [4]): 56.7%; mortality at 0.313 µg/mL (Diamondback moth; [5]): 100%
15 | CN(C(=O)c1ccc(F)nc1)c1cccc(C(=O)Nc2c(I)cc(C(F)(C(F)(F)F)C(F)(F)F)cc2C(F)(F)F)c1F [KC8, reference compound] | – | – | – | – | – | – | – | 53.33 | 82.22 | mortality at 0.156 µg/mL (Diamondback moth; [4]): 53.3%; mortality at 0.313 µg/mL (Diamondback moth; [5]): 86.7%
16 | C=CCN(C(=O)c1ccccc1)c1cccc(C(=O)Nc2c(C)cc(C(F)(C(F)(F)F)C(F)(F)F)cc2C)c1F [KC9, reference compound] | – | – | 100 | – | – | – | – | – | – | –
17 | C#CCN(C(=O)c1ccccc1)c1cccc(C(=O)Nc2c(C)cc(C(F)(C(F)(F)F)C(F)(F)F)cc2C)c1F [KC10, reference compound] | – | – | 100 | – | – | – | – | – | – | –
